US9504729B2, “Antiangiogenic small molecules and methods of use” (The United States of America, as represented by the …, priority 2009, dated 2016)

Tested on: angiogenesis genes in dermal microvascular endothelial cells
Assay: Real time RT-PCR of angiogenesis gene expression during endothelial tube formation
Type: cell-based
Settings: 1 μM SM, 24 hours
Description: For gene expression studies, three independent experiments were run for each SM tested. 90.000 cells/well (6 wells/treatment) of dermal microvascular endothelial cells (Lonza, Walkersville, Md.) were seeded on polymerized GELTREX™ gel matrix (Invitrogen, Carlsbad, Calif.) in 24 well plates. Wells were immediately treated with the same volume of 1 μM SM or PBS. After 24 hours incubation at 37° C. and 5% CO2, cells were extracted using Cell Recovery Solution (BD Biosciences, San Jose, Calif., Cat. #354253). Total RNA was extracted with the RNeasy Mini Kit (Qiagen, Valencia, Calif., Cat. #74104), and retrotranscribed using […]® First-Strand reverse transcriptase (Invitrogen, Carlsbad, Calif., Cat. #11904-018). The real time PCR reactions were performed in an Opticon 2 cycler (MJ Research, Waltham, Mass.). Amplification was performed in a final volume of 25 μl, containing 2 μl cDNA (1:10 dilution from the reversed transcribed reaction) and 2 μl of primer mixture (10 μM each of forward and reverse primers). Samples were amplified as follows: after initial denaturation at 95 C for 2 minutes, reactions were run for 46 cycles at 95° C. for 30 seconds, 60° C. for 30 seconds, and 72° C. for 45 seconds. Fluorescence was measured in every cycle and a melting curve was run after the PCR by increasing temperature from 50 to 96° C. (in 0.5° C. increments). A defined single peak was obtained for all amplicons, thus confirming the specificity of the amplification.
The genes that were monitored were selected based on their relevance to the angiogenesis process. All experiments were done in triplicate. The results are shown in the volcano plots of FIG. 17. Log 2 fold-change is presented in the X-axis and log 10 P value in the Y-axis.

Structure (SMILES): CCC(=O)OCN1C(=O)C=CC1=O [compound 19630]
- Log2 fold-change of gene expression: 1839: −1.2
- Log2 fold-change of gene expression: 4247: 1.0
- Log2 fold-change of gene expression: 5569: −3.0
- Log2 fold-change of gene expression: 8131: 0.6
- Log2 fold-change of gene expression: 9569: −2.3
- Log2 fold-change of gene expression: 10988: 2.5
- Log2 fold-change of gene expression: 23001: 0.4
- Log2 fold-change of gene expression: 55332: −1.1
- Log2 fold-change of gene expression: 57722: 0.2
- Log2 fold-change of gene expression: 58488: 1.2
- Log2 fold-change of gene expression: 90780: −1.2
- Log2 fold-change of gene expression: 134265: −1.6
- Log2 fold-change of gene expression: AKT1: 0.1
- Log2 fold-change of gene expression: ANGPT1: −0.5
- Log2 fold-change of gene expression: ANGPT2: −1.8
- Log2 fold-change of gene expression: ANGPTL3: −5.0
- Log2 fold-change of gene expression: ANGPTL4: −0.2
- Log2 fold-change of gene expression: ANPEP: −0.4
- Log2 fold-change of gene expression: ANTXR1: −0.3
- Log2 fold-change of gene expression: APOE: 3.3
- Log2 fold-change of gene expression: ARHGEF1: 0.2
- Log2 fold-change of gene expression: Acvrl1: −0.6
- Log2 fold-change of gene expression: Adcy4: 0.0
- Log2 fold-change of gene expression: BAL1: −0.9
- Log2 fold-change of gene expression: BMP1: 0.5
- Log2 fold-change of gene expression: C1orf54: −4.8
- Log2 fold-change of gene expression: CALD1: 1.7
- Log2 fold-change of gene expression: CCL2: 2.3
- Log2 fold-change of gene expression: CCL11: −0.3
- Log2 fold-change of gene expression: CD248: 1.3
- Log2 fold-change of gene expression: CDH5: −0.2
- Log2 fold-change of gene expression: CENTD3: 0.6
- Log2 fold-change of gene expression: CLIC1: −0.1
- Log2 fold-change of gene expression: COL4A3: 0.1
- Log2 fold-change of gene expression: COL18A1: 0.4
- Log2 fold-change of gene expression: COMT: −0.7
- Log2 fold-change of gene expression: CST4: 0.8
- Log2 fold-change of gene expression: CTTNBP2NL: −2.3
- Log2 fold-change of gene expression: CXCL3: 12.1
- Log2 fold-change of gene expression: CXCL5: 4.8
- Log2 fold-change of gene expression: CXCL6: −0.5
- Log2 fold-change of gene expression: CXCL9: −1.0
- Log2 fold-change of gene expression: CXCL10: 4.7
- Log2 fold-change of gene expression: Calcr1: −4.3
- Log2 fold-change of gene expression: Caskin2: −2.8
- Log2 fold-change of gene expression: Ccbp2: −0.1
- Log2 fold-change of gene expression: Cldn5: 0.6
- Log2 fold-change of gene expression: DGKG: 5.4
- Log2 fold-change of gene expression: DKK3: −1.5
- Log2 fold-change of gene expression: DLL4: −4.5
- Log2 fold-change of gene expression: DUT: −0.8
- Log2 fold-change of gene expression: EFNA1: 3.7
- Log2 fold-change of gene expression: EFNA3: −0.4
- Log2 fold-change of gene expression: EFNB2: −1.9
- Log2 fold-change of gene expression: EGF: −1.0
- Log2 fold-change of gene expression: ENG: 0.1
- Log2 fold-change of gene expression: EPHB4: −0.8
- Log2 fold-change of gene expression: EREG: 7.6
- Log2 fold-change of gene expression: ESAM1: −3.3
- Log2 fold-change of gene expression: EXTL3: 1.0
- Log2 fold-change of gene expression: Egf17: −3.8
- Log2 fold-change of gene expression: Ehd4: −1.1
- Log2 fold-change of gene expression: Entpd1: −4.9
- Log2 fold-change of gene expression: Epas1: 1.8
- Log2 fold-change of gene expression: EphB1: 0.0
- Log2 fold-change of gene expression: Erg: −1.6
- Log2 fold-change of gene expression: FGF1: −3.0
- Log2 fold-change of gene expression: FGF2: 1.7
- Log2 fold-change of gene expression: FGFR3: −0.2
- Log2 fold-change of gene expression: FIGF: −3.2
- Log2 fold-change of gene expression: FLT1: −2.1
- Log2 fold-change of gene expression: Fgd5: −1.6
- Log2 fold-change of gene expression: GPCR124: −1.7
- Log2 fold-change of gene expression: GRRP1: 0.0
- Log2 fold-change of gene expression: Grp116: −1.9
- Log2 fold-change of gene expression: HAND2: −0.5
- Log2 fold-change of gene expression: HGF: −0.3
- Log2 fold-change of gene expression: HIF1A: −1.7
- Log2 fold-change of gene expression: HPSE: 0.6
- Log2 fold-change of gene expression: Hspa12b: −4.6
- Log2 fold-change of gene expression: ID1: 1.0
- Log2 fold-change of gene expression: ID3: 0.4
- Log2 fold-change of gene expression: IFNA1: 0.4
- Log2 fold-change of gene expression: IFNB1: −0.4
- Log2 fold-change of gene expression: IFNG: 4.7
- Log2 fold-change of gene expression: IGF1: 3.6
- Log2 fold-change of gene expression: IL1B: 0.2
- Log2 fold-change of gene expression: IL6: 3.5
- Log2 fold-change of gene expression: IL8: 3.0
- Log2 fold-change of gene expression: ITGAV: −0.3
- Log2 fold-change of gene expression: ITGB3: −0.9
- Log2 fold-change of gene expression: Icam1: 0.1
- Log2 fold-change of gene expression: Icam2: 0.4
- Log2 fold-change of gene expression: JAG1: −1.2
- Log2 fold-change of gene expression: KDR: −2.7
- Log2 fold-change of gene expression: Kifc1: 3.4
- Log2 fold-change of gene expression: LAMAS5: −0.8
- Log2 fold-change of gene expression: LECT1: −0.4
- Log2 fold-change of gene expression: LEP: −4.5
- Log2 fold-change of gene expression: Lasts2: −0.1
- Log2 fold-change of gene expression: Lrrk1: −2.9
- Log2 fold-change of gene expression: MDK: −1.1
- Log2 fold-change of gene expression: MMP2: 0.5
- Log2 fold-change of gene expression: MMP9: 0.3
- Log2 fold-change of gene expression: MMP11: 0.8
- Log2 fold-change of gene expression: MRC2: 1.6
- Log2 fold-change of gene expression: Mmm2: −2.4
- Log2 fold-change of gene expression: Myo1b: −2.3
- Log2 fold-change of gene expression: NID1: −2.6
- Log2 fold-change of gene expression: NM023516: 0.5
- Log2 fold-change of gene expression: NRP1: −0.5
- Log2 fold-change of gene expression: NRP2: −2.2
- Log2 fold-change of gene expression: Notch4: −1.8
- Log2 fold-change of gene expression: Npr3: 8.3
- Log2 fold-change of gene expression: PALD: −1.1
- Log2 fold-change of gene expression: PDCD2: 0.5
- Log2 fold-change of gene expression: PDGFA: −0.7
- Log2 fold-change of gene expression: PECAM1: −2.6
- Log2 fold-change of gene expression: PGF: −2.4
- Log2 fold-change of gene expression: PLAU: 0.1
- Log2 fold-change of gene expression: PLG: −2.7
- Log2 fold-change of gene expression: PNMT: 0.7
- Log2 fold-change of gene expression: PROK2: −1.3
- Log2 fold-change of gene expression: PTGS1: −2.4
- Log2 fold-change of gene expression: PTPRCAP: 0.4
- Log2 fold-change of gene expression: Pltp: 0.9
- Log2 fold-change of gene expression: Ptprb: −1.6
- Log2 fold-change of gene expression: Ptprm: −1.2
- Log2 fold-change of gene expression: RAMP2: −4.8
- Log2 fold-change of gene expression: RASD2: 0.9
- Log2 fold-change of gene expression: Rasip1: 3.1
- Log2 fold-change of gene expression: S1PR1: −2.6
- Log2 fold-change of gene expression: SERPINF1: −0.8
- Log2 fold-change of gene expression: SPHK1: −0.5
- Log2 fold-change of gene expression: STAB1: −1.0
- Log2 fold-change of gene expression: Sdc4: 2.2
- Log2 fold-change of gene expression: Sdpr: −0.1
- Log2 fold-change of gene expression: Slc43a3: −0.8
- Log2 fold-change of gene expression: Slco2a1: −2.5
- Log2 fold-change of gene expression: TEK: −0.4
- Log2 fold-change of gene expression: TGFA: 1.1
- Log2 fold-change of gene expression: TGFB1: −1.3
- Log2 fold-change of gene expression: TGFB2: −0.5
- Log2 fold-change of gene expression: TGFBR1: −0.1
- Log2 fold-change of gene expression: THBS1: 0.5
- Log2 fold-change of gene expression: THBS2: −0.6
- Log2 fold-change of gene expression: THY1: −11.3
- Log2 fold-change of gene expression: TIMP1: −0.8
- Log2 fold-change of gene expression: TIMP2: −0.9
- Log2 fold-change of gene expression: TIMP3: 0.7
- Log2 fold-change of gene expression: TNF: −0.6
- Log2 fold-change of gene expression: TNS1: 0.6
- Log2 fold-change of gene expression: TNS3: −1.8
- Log2 fold-change of gene expression: TRA2B: 1.5
- Log2 fold-change of gene expression: TYMP: 0.3
- Log2 fold-change of gene expression: VEGFA: 4.2
- Log2 fold-change of gene expression: VEGFC: 0.1
- Log2 fold-change of gene expression: VGLL4: −1.3
- Log2 fold-change of gene expression: Vwf: −1.8
- Log2 fold-change of gene expression: copa: 0.4
- Log2 fold-change of gene expression: itbp4: −0.8
- Log2 fold-change of gene expression: ralb: 0.1
- Log2 fold-change of gene expression: stard9: −0.7
- Log2 fold-change of gene expression: B2M (1st listing (r49)): 0.0
- Log2 fold-change of gene expression: HPRT1 (1st listing (r50)): 0.8
- Log2 fold-change of gene expression: RPL13A (1st listing (r51)): −0.2
- Log2 fold-change of gene expression: GADPH (1st listing (r52)): 0.1
- Log2 fold-change of gene expression: ACTB (1st listing (r53)): 0.1
- Log2 fold-change of gene expression: PLXDC1 (1st listing (r74)): −4.0
- Log2 fold-change of gene expression: TNFAIP2 (1st listing (r91)): 0.2
- Log2 fold-change of gene expression: Robo4 (1st listing (r95)): 0.1
- Log2 fold-change of gene expression: 151516 (1st listing (r134)): 1.2
- Log2 fold-change of gene expression: TNFAIP2 (2nd listing (r92)): −0.4
- Log2 fold-change of gene expression: B2M (2nd listing (r97)): −0.1
- Log2 fold-change of gene expression: HPRT1 (2nd listing (r98)): 0.9
- Log2 fold-change of gene expression: RPL13A (2nd listing (r99)): 0.3
- Log2 fold-change of gene expression: GADPH (2nd listing (r100)): −0.3
- Log2 fold-change of gene expression: ACTB (2nd listing (r101)): −0.3
- Log2 fold-change of gene expression: PLXDC1 (2nd listing (r104)): −5.7
- Log2 fold-change of gene expression: 151516 (2nd listing (r139)): 0.9
- Log2 fold-change of gene expression: Robo4 (2nd listing (r188)): 0.3
- Log2 fold-change of gene expression: B2M (3rd listing (r145)): −1.4
- Log2 fold-change of gene expression: HPRT1 (3rd listing (r146)): 0.2
- Log2 fold-change of gene expression: RPL13A (3rd listing (r147)): 1.0
- Log2 fold-change of gene expression: GADPH (3rd listing (r148)): 0.1
- Log2 fold-change of gene expression: ACTB (3rd listing (r149)): −0.9
- Log2 fold-change of gene expression: B2M (4th listing (r193)): −0.9
- Log2 fold-change of gene expression: HPRT1 (4th listing (r194)): 2.0
- Log2 fold-change of gene expression: RPL13A (4th listing (r195)): 0.4
- Log2 fold-change of gene expression: GADPH (4th listing (r196)): −1.6
- Log2 fold-change of gene expression: ACTB (4th listing (r197)): −1.6
